Laboratory results from PMC3469757 (Journal of medicinal chemistry, 2012).

Tests used:
[1] = target: T1, human TRPV1 (Homo sapiens, UniProt Q8NER1); test: pH assay; format: cell-based; conditions: for IC50: read-out: IC50 [pH], hTRPV1 in CHO cells, activator pH 6.0 to 6.3
[2] = target: T1, human TRPV1; test: Capsaicin assay; format: cell-based; conditions: for fold more potent than parent 2 for capsaicin antagonism: versus compound 2
[3] = test system: male NMRI mice; test: Capsaicin induced hypothermia in mice; format: in vivo, mouse; conditions: 3 mg/kg intraperitoneal, 15 min post injection, from 37.1 ± 0.1 °C

T1 sequence (Q8NER1 whole entry): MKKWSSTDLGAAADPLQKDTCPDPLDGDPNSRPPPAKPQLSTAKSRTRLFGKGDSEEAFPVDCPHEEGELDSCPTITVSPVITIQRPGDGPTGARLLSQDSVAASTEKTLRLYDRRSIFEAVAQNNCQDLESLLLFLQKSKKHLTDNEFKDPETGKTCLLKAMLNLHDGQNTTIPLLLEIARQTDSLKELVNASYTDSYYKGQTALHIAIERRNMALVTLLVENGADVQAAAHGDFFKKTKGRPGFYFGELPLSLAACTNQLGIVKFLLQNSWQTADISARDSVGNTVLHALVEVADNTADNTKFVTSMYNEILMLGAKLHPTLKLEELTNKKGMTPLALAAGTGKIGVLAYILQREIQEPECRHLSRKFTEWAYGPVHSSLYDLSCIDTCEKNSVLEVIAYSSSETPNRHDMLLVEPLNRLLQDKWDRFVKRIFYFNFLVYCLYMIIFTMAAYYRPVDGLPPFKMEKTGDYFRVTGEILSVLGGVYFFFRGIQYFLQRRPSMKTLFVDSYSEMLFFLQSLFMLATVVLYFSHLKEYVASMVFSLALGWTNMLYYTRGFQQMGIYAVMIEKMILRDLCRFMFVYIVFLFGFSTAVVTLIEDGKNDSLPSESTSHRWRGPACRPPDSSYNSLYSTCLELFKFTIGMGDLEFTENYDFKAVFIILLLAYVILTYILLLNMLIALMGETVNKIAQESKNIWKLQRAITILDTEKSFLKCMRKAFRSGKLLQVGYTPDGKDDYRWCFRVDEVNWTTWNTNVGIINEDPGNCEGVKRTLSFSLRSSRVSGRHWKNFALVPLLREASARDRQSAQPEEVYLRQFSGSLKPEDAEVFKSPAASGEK

## CC(C(=O)NCc1ccc(C(F)(F)F)nc1NCc1ccncc1)c1ccc(NS(C)(=O)=O)c(F)c1 (stereo not shown) [Compound 26, 2-(3-Fluoro-4-(methylsulfonamido)phenyl)-N-((2-((pyridin-4-ylmethyl)amino)-6-(trifluoromethyl)pyridin-3-yl)methyl)propanamide]
[1]
  IC50: > 10 µM

## C[C@H](C(=O)NCc1ccc(C(F)(F)F)nc1N1CCC[C@H]1CO)c1ccc(NS(C)(=O)=O)c(F)c1 [Compound 35, (S)-2-(3-Fluoro-4-(methylsulfonamido)phenyl)-N-((2-((S)-2-(hydroxymethyl)pyrrolidin-1-yl)-6-(trifluoromethyl)pyridin-3-yl)methyl)propanamide]
[1]
  IC50: > 10 µM

## CC(C(=O)NCc1ccc(C(F)(F)F)nc1N(C)c1ccccc1)c1ccc(NS(C)(=O)=O)c(F)c1 (stereo not shown) [Compound 32, 2-(3-Fluoro-4-(methylsulfonamido)phenyl)-N-((2-(methyl(phenyl)amino)-6-(trifluoromethyl)pyridin-3-yl)methyl)propanamide]
[2]; versus compound 17
  fold increase in potency for CAP compared to phenylamino analogue 17: 75 fold
[1]; versus compound 17
  fold increase in potency for pH compared to phenylamino analogue 17: 25 fold

## CC(C)(C)c1ccc(CNC(=S)NCc2ccc(NS(C)(=O)=O)c(F)c2)cc1 [Compound 1, reference compound]
[1]
  IC50: > 10 µM

## CC(C(=O)NCc1ccc(C(F)(F)F)nc1N1CCNCC1)c1ccc(NS(C)(=O)=O)c(F)c1 (stereo not shown) [Compound 81, 2-(3-Fluoro-4-(methylsulfonamido)phenyl)-N-((2-(piperazin-1-yl)-6-(trifluoromethyl)pyridin-3-yl)methyl)propanamide]
[2]; hTRPV1 in CHO cells
  hTRPV1 antagonism in words: weak antagonist
[1]
  IC50: > 10 µM

## CC(C(=O)NCc1ccc(C(F)(F)F)nc1Nc1ccc(Cl)cc1)c1ccc(NS(C)(=O)=O)c(F)c1 (stereo not shown) [Compound 19, N-((2-((4-Chlorophenyl)amino)-6-(trifluoromethyl)pyridin-3-yl)methyl)-2-(3-fluoro-4-(methylsulfonamido)phenyl)propanamide]
[2]; hTRPV1 in CHO cells
  hTRPV1 antagonism in words: devoid of activity

## CC(C(=O)NCc1ccc(C(F)(F)F)nc1N1CCC(N2CCCCC2)CC1)c1ccc(NS(C)(=O)=O)c(F)c1 (stereo not shown) [Compound 75, N-((2-([1,4'-Bipiperidin]-1'-yl)-6-(trifluoromethyl)pyridin-3-yl)methyl)-2-(3-fluoro-4-(methylsulfonamido)phenyl)propanamide]
[1]
  IC50: > 10 µM

## CC(C(=O)NCc1ccc(C(F)(F)F)nc1N1CCCCC1)c1ccc(NS(C)(=O)=O)c(F)c1 (stereo not shown) [Compound 45, 2-(3-Fluoro-4-(methylsulfonamido)phenyl)-N-((2-(piperidin-1-yl)-6-(trifluoromethyl)pyridin-3-yl)methyl)propanamide]
[2]; hTRPV1 in CHO cells
  fold more potent than parent 2 for capsaicin antagonism: 46 fold

## CC(C(=O)NCc1ccc(C(F)(F)F)nc1N1CCC(N2CCCC2)CC1)c1ccc(NS(C)(=O)=O)c(F)c1 (stereo not shown) [Compound 76, 2-(3-Fluoro-4-(methylsulfonamido)phenyl)-N-((2-(4-(pyrrolidin-1-yl)piperidin-1-yl)-6-(trifluoromethyl)pyridin-3-yl)methyl)propanamide]
[1]
  IC50: > 10 µM

## CC(C(=O)NCc1ccc(C(F)(F)F)nc1NCc1cccnc1)c1ccc(NS(C)(=O)=O)c(F)c1 (stereo not shown) [Compound 25, 2-(3-Fluoro-4-(methylsulfonamido)phenyl)-N-((2-((pyridin-3-ylmethyl)amino)-6-(trifluoromethyl)pyridin-3-yl)methyl)propanamide]
[1]
  IC50: > 10 µM

## CC(C(=O)NCc1ccc(C(F)(F)F)nc1N1CCS(=O)(=O)CC1)c1ccc(NS(C)(=O)=O)c(F)c1 (stereo not shown) [Compound 99, N-((2-(1,1-Dioxidothiomorpholino)-6-(trifluoromethyl)pyridin-3-yl)methyl)-2-(3-fluoro-4-(methylsulfonamido)phenyl)propanamide]
[2]; hTRPV1 in CHO cells
  hTRPV1 antagonism in words: only weak potency
[1]
  IC50: > 10 µM

## CC(C(=O)NCc1ccc(C(F)(F)F)nc1NCc1ccccn1)c1ccc(NS(C)(=O)=O)c(F)c1 (stereo not shown) [Compound 24, 2-(3-Fluoro-4-(methylsulfonamido)phenyl)-N-((2-((pyridin-2-ylmethyl)amino)-6-(trifluoromethyl)pyridin-3-yl)methyl)propanamide]
[1]
  IC50: > 10 µM

## CC(C(=O)NCc1ccc(C(F)(F)F)nc1N1CCN(c2ccncc2)CC1)c1ccc(NS(C)(=O)=O)c(F)c1 (stereo not shown) [Compound 92, 2-(3-Fluoro-4-(methylsulfonamido)phenyl)-N-((2-(4-(pyridin-4-yl)piperazin-1-yl)-6-(trifluoromethyl)pyridin-3-yl)methyl)propanamide]
[1]
  IC50: > 10 µM

## CC(C(=O)NCc1ccc(C(F)(F)F)nc1N1CCN(C)CC1)c1ccc(NS(C)(=O)=O)c(F)c1 (stereo not shown) [Compound 82, 2-(3-Fluoro-4-(methylsulfonamido)phenyl)-N-((2-(4-methylpiperazin-1-yl)-6-(trifluoromethyl)pyridin-3-yl)methyl)propanamide]
[1]
  IC50: > 10 µM

## C[C@H](C(=O)NCc1ccc(C(F)(F)F)nc1N1CCC[C@H]1C(=O)N(C)C)c1ccc(NS(C)(=O)=O)c(F)c1 [Compound 36, (S)-1-(3-(((S)-2-(3-Fluoro-4-(methylsulfonamido)phenyl)propanamido)methyl)-6-(trifluoromethyl)pyridin-2-yl)-N,N-dimethylpyrrolidine-2-carboxamide]
[1]
  IC50: > 10 µM

## CC(C(=O)NCc1ccc(C(F)(F)F)nc1N1CCC(O)CC1)c1ccc(NS(C)(=O)=O)c(F)c1 (stereo not shown) [Compound 65, 2-(3-Fluoro-4-(methylsulfonamido)phenyl)-N-((2-(4-hydroxypiperidin-1-yl)-6-(trifluoromethyl)pyridin-3-yl)methyl)propanamide]
[1]
  IC50: > 10 µM

## CC1CCCN1c1nc(C(F)(F)F)ccc1CNC(=O)[C@@H](C)c1ccc(NS(C)(=O)=O)c(F)c1 (stereo partly drawn) [Compound 34, (2S)-2-(3-Fluoro-4-(methylsulfonamido)phenyl)-N-((2-(2-methylpyrrolidin-1-yl)-6-(trifluoromethyl)pyridin-3-yl)methyl)propanamide]
[1]
  IC50: > 10 µM

## CC(C(=O)NCc1ccc(C(F)(F)F)nc1N1CCN(c2ncccc2C(F)(F)F)CC1)c1ccc(NS(C)(=O)=O)c(F)c1 (stereo not shown) [Compound 95, 2-(3-Fluoro-4-(methylsulfonamido)phenyl)-N-((6-(trifluoromethyl)-2-(4-(3-(trifluoromethyl)pyridin-2-yl)piperazin-1-yl)pyridin-3-yl)methyl)propanamide]
[1]
  IC50: > 10 µM

## CC(C(=O)NCc1ccc(C(F)(F)F)nc1N1CCCCC1C)c1ccc(NS(C)(=O)=O)c(F)c1 (stereo not shown) [Compound 47, 2-(3-Fluoro-4-(methylsulfonamido)phenyl)-N-((2-(2-methylpiperidin-1-yl)-6-(trifluoromethyl)pyridin-3-yl)methyl)propanamide]
[1]
  IC50: > 10 µM

## CC1CCCN(c2nc(C(F)(F)F)ccc2CNC(=O)C(C)c2ccc(NS(C)(=O)=O)c(F)c2)C1 (stereo not shown) [Compound 48, 2-(3-Fluoro-4-(methylsulfonamido)phenyl)-N-((2-(3-methylpiperidin-1-yl)-6-(trifluoromethyl)pyridin-3-yl)methyl)propanamide]
[1]
  IC50: > 10 µM

## CC(C(=O)NCc1ccc(C(F)(F)F)nc1N1CCOCC1)c1ccc(NS(C)(=O)=O)c(F)c1 (stereo not shown) [Compound 97, 2-(3-Fluoro-4-(methylsulfonamido)phenyl)-N-((2-morpholino-6-(trifluoromethyl)pyridin-3-yl)methyl)propanamide]
[2]; hTRPV1 in CHO cells
  fold more potent than parent 2 for capsaicin antagonism: 15 fold

## COc1cc(CNC(=O)CCCC/C=C/C(C)C)ccc1O [capsaicin, reference compound]
[3]
  body temperature after capsaicin injection: 34.0 ± 0.1 °C

## C[C@H](C(=O)NCc1ccc(C(F)(F)F)nc1N1CC[C@@H](O)C1)c1ccc(NS(C)(=O)=O)c(F)c1 [Compound 38, (S)-2-(3-Fluoro-4-(methylsulfonamido)phenyl)-N-((2-((R)-3-hydroxypyrrolidin-1-yl)-6-(trifluoromethyl)pyridin-3-yl)methyl)propanamide]
[1]
  IC50: > 10 µM

## C[C@H](C(=O)NCc1ccc(C(F)(F)F)nc1N1CCCCC1)c1ccc(NS(C)(=O)=O)c(F)c1 [Compound 45S, (S)-2-(3-Fluoro-4-(methylsulfonamido)phenyl)-N-((2-(piperidin-1-yl)-6-(trifluoromethyl)pyridin-3-yl)methyl)propanamide]
[2]; hTRPV1 in CHO cells, versus compound 3
  fold more potent than lead 3 for capsaicin antagonism: ca. 15 fold

## CC(C(=O)NCc1ccc(C(F)(F)F)nc1)c1ccc(NS(C)(=O)=O)c(F)c1 (stereo not shown) [Compound 12, 2-(3-Fluoro-4-(methylsulfonamido)phenyl)-N-((6-(trifluoromethyl)pyridin-3-yl)methyl)propanamide]
[2]; hTRPV1 in CHO cells
  hTRPV1 antagonism in words: weak antagonist
[1]
  IC50: > 10 µM

## CC(C(=O)NCc1ccc(C(F)(F)F)nc1Nc1ccc(F)cc1)c1ccc(NS(C)(=O)=O)c(F)c1 (stereo not shown) [Compound 18, 2-(3-Fluoro-4-(methylsulfonamido)phenyl)-N-((2-((4-fluorophenyl)amino)-6-(trifluoromethyl)pyridin-3-yl)methyl)propanamide]
[1]
  IC50: > 10 µM

## CC(C(=O)NCc1ccc(C(F)(F)F)nc1N1CCN(C2CCCCC2)CC1)c1ccc(NS(C)(=O)=O)c(F)c1 (stereo not shown) [Compound 83, N-((2-(4-Cyclohexylpiperazin-1-yl)-6-(trifluoromethyl)pyridin-3-yl)methyl)-2-(3-fluoro-4-(methylsulfonamido)phenyl)propanamide]
[1]
  IC50: > 10 µM

## CC(C(=O)NCc1ccc(C(F)(F)F)nc1N1CCC(=O)CC1)c1ccc(NS(C)(=O)=O)c(F)c1 (stereo not shown) [Compound 64, 2-(3-Fluoro-4-(methylsulfonamido)phenyl)-N-((2-(4-oxopiperidin-1-yl)-6-(trifluoromethyl)pyridin-3-yl)methyl)propanamide]
[1]
  IC50: > 10 µM

## CC(C)OC1CCN(c2nc(C(F)(F)F)ccc2CNC(=O)C(C)c2ccc(NS(C)(=O)=O)c(F)c2)CC1 (stereo not shown) [Compound 70, 2-(3-Fluoro-4-(methylsulfonamido)phenyl)-N-((2-(4-isopropoxypiperidin-1-yl)-6-(trifluoromethyl)pyridin-3-yl)methyl)propanamide]
[1]
  IC50: > 10 µM

## O=C(/C=C/c1ccc(C(F)(F)F)nc1N1CCCCC1)Nc1ccc2cccnc2c1 [Compound 3, reference compound]
[1]
  IC50: > 10 µM
